Experimental data reported in patent publication US12378220B2, “WNT signaling pathway inhibitors for treatments of disease” (University of Maryland, Baltimore, priority 2016, dated 2025).
pIC50: −log10 of the molar value. Like-named read-outs stand apart in the source and are kept apart here. Blank lines part the entries; values can stand above or below the compound they belong to.

Tests used:
[1] = test system: WiDr, SW620, HT29, HEK_LTV, and T84 cell lines; test: cell proliferation and growth inhibition assay (CCK-8), cell line panel; type: cell-based, human; details: 72 h, FIG. 12
Description: Cell Proliferation and Growth Inhibition Assay. HT-29, HCT-116, WiDr, SW620, SW480, T84, A549, MCF-7, HepG2, Hela cells were cultured in respective growth medium. Cells of log phase were used. 3000-5000 cells/well were seeded in 96-well plates with a 100 μL volume. After 24 h, Compounds were dissolved to […] with DMSO, and a 3-fold serial dilution of the compounds from 5×10^−5 M to […] was performed. 2 μL of compound solution was added to 998 μL of growth medium, the mixture was vortexed sufficiently. 100 μL of the mixture was correspondingly added to the 96-well plate. 2 μL DMSO instead of compound solution was used as the 0% inhibitor control. After coincubation for 72 h, the old medium was removed and 100 μL of 10% CCK-8 in culture medium was added. 2 h later the plates were read in the microplate reader (Bio-Rad) at 450 nm. The data was calculated using Graph Pad Prism version 5.0. The IC50 were fitted using a nonlinear regression model with a sigmoidal dose response.

[2] = test system: C57BL/6 mice on high-fat diet; test: YW1128 in high-fat diet mice (liver histology, IPGTT, body weight); type: in vivo
Description: Mice were treated with YW1128 and representative liver histology was observed through H&E staining. C57BL/6 mice were placed on a high-fat diet. Seven weeks later (week 0), the mice received either vehicle or YW1128 by IP injection for 11 weeks. Regarding treatment with YW1128, the mice were initially treated at a dose of 10 mg/kg/2 days, which was increased to 40 mg/kg/2 days from week 8. The mice were then euthanized at the end of 11 weeks. Liver histology for vehicle (FIGS. 33A and 33B) and YW1128 (FIGS. 33C and 33D) was examined by H&E staining.
An intraperitoneal glucose tolerance test (IPGTT) was conducted on high-fat diet (HFD) groups at the end of the study. C57BL/6 mice (n=3-4 per group) were put on a high fat diet. Seven weeks later (week 0), the mice received either vehicle or YW1128 by IP injection for 11 weeks. Regarding the treatment with YW1128, the mice were initially treated at a dose of 10 mg/kg/2 days, which was increased to 40 mg/kg/2 days from week 8. FIG. 34A describes the glucose levels at up to 120 minutes post-injection at week 0. FIG. 34B describes the glucose levels at up to 120 minutes post-injection at week 11, where *P<0.05 and **P<0.01, compared to the […].
The effect of YW1128 on body weight was also observed in mice having normal diets (NC) and those having high-fat (HF) diets. C57BL/6 mice (n=3-4 per group) were put on either an HF diet or an NC diet. Seven weeks later, the mice received either YW1128 or vehicle by IP injection. Regarding the treatment with YW1128, the mice were treated at a dose of 40 mg/kg/2 days for seven weeks. The results of such study are shown in FIG. 35, where *P<0.05 for the comparison between HF-vehicle and the other three groups.

[3] = test system: C57BL/6 mice on Western high-fat diet; test: YW1128 on high-fat diet-induced steatosis, liver protein analysis; type: in vivo; details: I.P. 40 mg/kg/2 days, 11 weeks
From the text: FIGS. 36A to 36D illustrate the effect of YW1128 on a high-fat diet (HFD)-induced steatosis. FIG. 36A illustrates representative liver histology by H&E staining. FIG. 36B illustrates an intraperitoneal glucose tolerance test (IPGTT) performed at the end of a study. FIG. 36C illustrates body weight monitoring performed during the treatment.
C57BL/6 mice (n=7/group) were put on a Western high-fat diet (HFD) or normal chow diet (NCD). Seven weeks later, the mice received either vehicle or YW1128 by I.P., 40 mg/kg/2 days, for 11 weeks. Representative liver histology was measured by H&E staining (FIG. 36A). An intraperitoneal glucose tolerance test (IPGTT) was conducted at the end of the study (FIG. 36B). Body weight for the mice was monitored during the treatment (FIG. 36C).

[4] = test system: Wnt/β-catenin pathway; test: dual-luciferase TCF/LEF reporter assay, LiCl-activated, HEK293 cells; type: cell-based; details: for activity at 1 µM / IC50: Homo sapiens; for pIC50: Table 7
Description: Lithium chloride (LiCl), which has been previously established as an activator of the Wnt/β-catenin pathway through its direct and indirect effects on GSK3β was used for pathway activation. The inhibition of the Wnt/β-catenin pathway by a compound may be determined after its incubation with cells for 24 hours.
The assay provided herein is a dual-luciferase assay to measure Wnt/β-catenin pathway activation using a TCF/LEF responsive reporter construct similar to that described previously (Thorne et al., 2010).

[5] = test system: C57BL/6 mice on high-fat diet; details: intraperitoneal
From the text: C57BL/6 mice (n=6/group) were put either on high-fat (HF) or normal chow (NC) diet.

[6] = test system: HepG2 cells; test: expression of Wnt pathway proteins; type: cell-based, human; details: FIG. 3
Description: HepG2 cells were treated by YW1149 (vehicle, 0.1, 1 μM).

[7] = test system: HepG2 cells; test: glucose production, G6P expression and AMPK phosphorylation; type: cell-based, human
[8] = high-fat diet mice, IP injection
[9] = HEK293, 24 h, At 1 μM concentration, remaining Wnt signaling activity, read-out: RLU % (Relative Light Units in reporter gene assays)
[10] = HEK293, Table 3, values in nM, read-out: IC50
[11] = HepG2, 0.1 μM pyrvinium, 10 μM YW1149
[12] = HEK293, Table 3, values in μM, read-out: IC50
[13] = HEK293, Table 6, read-out: IC50 (nM) or remaining activity at 1 μM: IC50
[14] = HEK293, Table 5, read-out: IC50 (nM) or remaining activity at 1 μM: IC50

Compound: 1-(2-Fluorophenyl)-5-methyl-N-(quinolin-2-yl)-1H-pyrazole-4-carboxamide [YW2035]
growth inhibitory activity [1]: micromolar growth inhibitory activity

Compound: Cc1ccccc1-n1nnc(C(=O)Nc2ccc3ccccc3n2)c1C [YW1128, 5-Methyl-N-(quinolin-2-yl)-1-(o-tolyl)-1H-1,2,3-triazole-4-carboxamide]
liver histology (H&E), fatty liver disease ([2]; high-fat diet mice, IP 11 weeks): did not exhibit any histology of fatty liver disease | body weight gain [2, 8]: decrease body weight gain | glucose tolerance (IPGTT) [2, 8]: significantly improve glucose tolerance | toxicity of subchronic treatment ([2]; mice, IP, up to 40 mg/kg/2 days): did not cause any obvious toxicity | growth inhibitory activity [1]: micromolar growth inhibitory activity | CK1a in liver [3]: did not show any significant change | phosphorylation of AMPKα1 at threonine 172 (p-AMPKα) in liver ([3]; vs vehicle-treated livers, 40 mg/kg): increased phosphorylation | activity at 1 µM [4, 9]: 3.7% | IC50 [4, 10]: 7.7 nM

Compound: Cc1c(C(=O)Nc2ccc3ccccc3n2)cnn1C(C)(C)C [YW2049, 1-(Tert-butyl)-5-methyl-N-(quinolin-2-yl)-1H-pyrazole-4-carboxamide]
growth inhibitory activity [1]: micromolar growth inhibitory activity

Compound: Cc1cc(/C=C/c2ccc3cc(N(C)C)ccc3[n+]2C)c(C)n1-c1ccccc1 [Pyrvinium, pyrvinium, reference compound]
weight gain [5]: decrease weight gain | Axin protein expression [6]: increased | β-catenin and target gene c-Myc protein [6]: attenuation | expression of glucose 6-phosphatase (G6P) [7, 11]: significantly suppress | glucose production [7, 11]: significantly suppress | phosphorylation of AMPK ([7]; HepG2 cells): increase phosphorylation

Compound: CCc1c(C(=O)Nc2ccc3ccccc3n2)nnn1-c1ccccc1F [Compound 45, 5-Ethyl-1-(2-fluorophenyl)-N-(quinolin-2-yl)-1H-1,2,3-triazole-4-carboxamide]
pIC50 ([4]; read-out: IC50): 7.33

Compound: Cc1ccc(-n2nnc(C(=O)Nc3ccc4ccccc4n3)c2C)c(C)c1 [Compound 32, 1-(2,4-Dimethylphenyl)-5-methyl-N-(quinolin-2-yl)-1H-1,2,3-triazole-4-carboxamide]
IC50 [4, 13]: 130 nM

Compound: Cc1ccc(-n2nnc(C(=O)Nc3nc(-c4ccccc4)c(-c4ccccc4)s3)c2C)cc1 [Compound 22, N-(4,5-diphenylthiazol-2-yl)-5-methyl-1-(p-tolyl)-1H-1,2,3-triazole-4-carboxamide]
IC50 [4, 14]: 1000 nM

Compound: Cc1ccccc1-n1nnc(C(=O)Nc2nc(-c3ccccc3)cs2)c1C [Compound 30, 5-Methyl-N-(4-phenylthiazol-2-yl)-1-(o-tolyl)-1H-1,2,3-triazole-4-carboxamide]
pIC50 ([4]; read-out: IC50): 4.66

Compound: CC(=O)c1ccccc1-n1nnc(C(=O)Nc2ccc3ccccc3n2)c1C [Compound 39, 1-(2-Acetylphenyl)-5-methyl-N-(quinolin-2-yl)-1H-1,2,3-triazole-4-carboxamide]
IC50 [4, 13]: 814 nM

Compound: Cc1ccc(-n2nnc(C(=O)Nc3cc(C)no3)c2C)cc1 [Compound 24, 5-Methyl-N-(3-methylisoxazol-5-yl)-1-(p-tolyl)-1H-1,2,3-triazole-4-carboxamide]
IC50 [4, 14]: 48000 nM

Compound: Cc1ccc(-n2c(C)cc(C(=O)Nc3cnccn3)c2C)cc1 [Compound 15, 2,5-Dimethyl-N-(pyrazin-2-yl)-1-(p-tolyl)-1H-pyrrole-3-carboxamide]
activity at 1 µM ([4]; HEK293, Table 4, @ 1 μM, read-out: IC50 (nM) or remaining activity at 1 μM: remaining activity): 112%

Compound: Cc1c(C(=O)Nc2ccc3ccccc3n2)nnn1-c1ccccc1-c1ccccc1 [Compound 38, 1-([1,1′-biphenyl]-2-yl)-5-methyl-N-(quinolin-2-yl)-1H-1,2,3-triazole-4-carboxamide]
IC50 [4, 13]: 52000 nM

Compound: Cc1c(C(=O)Nc2ccc3ccccc3n2)nnn1-c1ccccc1F [Compound 33, 1-(2-Fluorophenyl)-5-methyl-N-(quinolin-2-yl)-1H-1,2,3-triazole-4-carboxamide]
IC50 [4, 13]: 6.5 nM

Compound: Cc1ccccc1-n1nnc(C(=O)Nc2ccc3ccccc3n2)c1C [Compound 28, 5-Methyl-N-(quinolin-2-yl)-1-(o-tolyl)-1H-1,2,3-triazole-4-carboxamide]
IC50 [4, 13]: 6.3 nM

Compound: CC(C)c1c(C(=O)Nc2ccc3ccccc3n2)nnn1-c1ccccc1F [Compound 46, 1-(2-Fluorophenyl)-5-isopropyl-N-(quinolin-2-yl)-1H-1,2,3-triazole-4-carboxamide]
pIC50 ([4]; read-out: IC50): 6.75

Compound: Cc1ccc(-n2nnc(C(=O)NCc3ccccn3)c2C)cc1 [Compound 25, 5-Methyl-N-(pyridin-2-ylmethyl)-1-(p-tolyl)-1H-1,2,3-triazole-4-carboxamide]
IC50 [4, 14]: > 1000 nM

The next lines start with results.

IC50 [4, 10]: 731 nM
Compound: Cc1c(C(=O)Nc2ccc3ccccc3n2)nnn1-c1cccc(Cl)c1 [YW1173, 1-(3-Chlorophenyl)-5-methyl-N-(quinolin-2-yl)-1H-1,2,3-triazole-4-carboxamide]
activity at 1 µM [4, 9]: 26.3%

IC50 [4, 12]: 52000 nM
Compound: Cc1c(C(=O)Nc2ccc3ccccc3n2)nnn1-c1ccccc1-c1ccccc1 [YW1180, 1-([1,1′-biphenyl]-2-yl)-5-methyl-N-(quinolin-2-yl)-1H-1,2,3-triazole-4-carboxamide]
activity at 1 µM [4, 9]: 104%

IC50 [4, 10]: 47 nM
Compound: CCc1c(C(=O)Nc2ccc3ccccc3n2)nnn1-c1ccccc1F [YW2018, 5-Ethyl-1-(2-fluorophenyl)-N-(quinolin-2-yl)-1H-1,2,3-triazole-4-carboxamide]
activity at 1 µM [4, 9]: 2.3%

IC50 [4, 10]: 6.5 nM
Compound: Cc1c(C(=O)Nc2ccc3ccccc3n2)nnn1-c1ccccc1F [YW1159, 1-(2-Fluorophenyl)-5-methyl-N-(quinolin-2-yl)-1H-1,2,3-triazole-4-carboxamide]
activity at 1 µM [4, 9]: 1.4%

IC50 [4, 12]: 49000 nM
Compound: Cc1ccc(-n2c(C)cc(C(=O)NCc3ccccc3)c2C)cc1 [YW1104, N-Benzyl-2,5-dimethyl-1-(p-tolyl)-1H-pyrrole-3-carboxamide]
activity at 1 µM [4, 9]: 92.9%

IC50 [4, 10]: 567 nM
Compound: Cc1cccc(-n2nnc(C(=O)Nc3ccc4ccccc4n3)c2C)c1C [YW1170, 1-(2,3-Dimethylphenyl)-5-methyl-N-(quinolin-2-yl)-1H-1,2,3-triazole-4-carboxamide]
activity at 1 µM [4, 9]: 17.8%

IC50 [4, 10]: 10 nM
Compound: Cc1c(C(=O)Nc2ccc3ccccc3n2)nnn1-c1ccccc1Br [YW1169, 1-(2-Bromophenyl)-5-methyl-N-(quinolin-2-yl)-1H-1,2,3-triazole-4-carboxamide]
activity at 1 µM [4, 9]: 3.2%
